Assay results: patent US10662475B2, “Compositions and methods for the treatment and prevention of antipsychotic medication-induced weight gain” (Centre for Addiction and Mental Health, priority 2014, dated 2020)

What was measured:
GLP-1 = details: rat models; effects seem to occur after a longer treatment period; cited from earlier work
[1] = for weight gain (% change from baseline weight): total sample, European ancestry subjects with schizophrenia or schizoaffective disorder, by antipsychotic, mean ± SD
Description: Our sample comprised 66 European ancestry subjects aged 18-60 years with schizophrenia or schizoaffective disorder according to Diagnostic and Statistical Manual of Mental Disorders, Third Edition, Revised, or Fourth Edition (DSM-IIIR or DSM-IV) criteria.
Patients with a history of treatment refractory schizophrenia or schizoaffective disorder, or intolerance to typical antipsychotics, were treated with clozapine for 6 weeks and assessed for response and weight gain. These patients had never received a second generation antipsychotic prior to enrollment in the study, and underwent a 7-14 day washout period where they received no antipsychotic medication prior to receiving clozapine.
All analyses were done using R version 2.15.1 statistical software (R Core Team, 2012), with the rms package. Categorical variables were compared across study centres using Pearson chi-square test and continuous variables were compared using ANOVA, unless the assumptions of these tests were violated in which case Fisher's exact test and the Kruskal-Wallis test were used. Linear regression was used to test for differences in weight gain (% change from baseline weight) between genotypic groups using additive genotypic model with adjustment for relevant covariates.

TSPO = molecular target: T1, TSPO (Mus musculus, UniProt P50637); details: high-fat diet induced obese mice; cited from earlier work
T1 construct: host or cells: high-fat diet induced obese mice (in vivo)

[2] = adjunct treatment, human studies; cited from earlier work
[3] = total sample N=128, patients treated with clozapine, risperidone, olanzapine or haloperidol
[4] = Antipsychotic-induced weight change, orexin receptor (HCRTR1/HCRTR2) SNP association study; type: in vivo, human; details: Sample HYM n = 74, all on clozapine, 6 weeks
Description: Written informed consent was obtained from all participants. […] Exclusion criteria for these studies included pregnancy, organic brain disorder, severe head injuries, previous medical conditions which required treatment and were not stable (Hepatitis C, HIV, Thyroid disorder or diabetes mellitus), substance dependence, clinically relevant mental retardation and severe personality disorder.
Genomic DNA was extracted from blood samples using the high-salt method (Lahiri and Nurnberger 1991). […] A total of 5 tagSNPs covering a 20 kb region including HCRTR1 (˜9.6 kb) and 28 tagSNPs covering 120 kb including HCRTR2 (˜108 kb) were included in this study.
Analysis of covariance (ANCOVA) was used to test association between genotype and weight change (%) from baseline as the dependent variable, genotypes as fixed factor and, baseline weight and duration of treatment as covariates. Corrections for multiple tests were calculated using Single Nucleotide Polymorphism Spectral Decomposition (SNPSpD, (Nyholt 2004)). Power calculations were performed using Quanto 1.2.4 (Gauderman and Morrison 2006). Assuming a minor allele frequency of 0.25 and a sample size of n=130, we had more than 80% power to detect a mean difference of 3.6% between carriers and non-carriers of the risk genotype in an additive or dominant model.

OCCOCCN1CCN(C2=Nc3ccccc3Sc3ccccc32)CC1 [quetiapine]
GLP-1 levels (GLP-1): decrease GLP-1 levels

O=C(CCCN1CCC(O)(c2ccc(Cl)cc2)CC1)c1ccc(F)cc1 [haloperidol]
weight gain (% change from baseline weight) [1]: −4.17%±15.2

CCC(C)N(C)C(=O)c1cc2ccccc2c(-c2ccccc2Cl)n1 (centres unmarked) [PK1195]
lipid accumulation in the liver, free and LDL cholesterol, and blood glucose levels (TSPO): significantly lowered

CC(=O)[C@H]1CC[C@H]2[C@@H]3CC=C4C[C@@H](O)CC[C@]4(C)[C@H]3CC[C@]12C [pregnenolone]
symptoms of schizophrenia [2]: improves symptoms of schizophrenia

CN1CCN(C2=Nc3cc(Cl)ccc3Nc3ccccc32)CC1 [clozapine]
weight gain [3]: highest weight gain | Weight gain <7%, n (%) [4]: 47 (63.5) n (%) | Weight gain ≥7%, n (%) [4]: 27 (36.5) n (%) | Weight change ([4]; mean ± SD): 3.76 ± 4.4 kg | Weight change (%) ([4]; mean ± SD): 5.35 ± 6.3% | Weight change ± SD (%) ([1]; Sample HYM n = 54, all on clozapine, 6 weeks): 3.84 ± 5.8% | weight gain (% change from baseline weight) [1]: 3.99%±5.8
